According to paper PMC3914206:

How the values were obtained:
ERK5 [1] = biological target: T1, ERK5 (Homo sapiens, UniProt Q13164); assay: ERK5 autophosphorylation assay (EGF-stimulated, mobility shift immunoblot); assay type: cell-based; design: endogenous in cells; host or cells: HeLa; settings: inhibition of EGF-stimulated autophosphorylation of ERK5 in HeLa cells; read-out: Cellular EC50 (ERK5)
Excerpt: Proteins from total cell lysates were resolved by 6% sodium dodecyl sulfate (SDS)-poly-acrylamide gel electrophoresis (PAGE), transferred to nitrocellulose membrane, blocked in 5% nonfat milk, and blotted with anti-ERK5 antibody.

ERK5 [2] = biological target: T1, ERK5; assay: ERK5 kinase activity in vitro assay (32P-ATP, PIMtide substrate); assay type: biochemical; design: hexahistidine (His6) (N); made in house; host or cells: Spodoptera frugiperda 21 cells (baculovirus, Bac-to-Bac); settings: for IC50: in vitro assay, recombinant active ERK5, read-out: Enzymatic IC50 (ERK5)
Experimental: pFastBAC vector encoding N-terminal hexahistidine-tagged human ERK5 and HA-tagged human MEK5-DD (constitutively active) were used to generate recombinant baculovirus using the Bac-to-Bac system (Invitrogen). […] His-tagged ERK5 was purified as described for His-tagged BRSK1[33], using 5 mL Ni-NTA-agarose resin (Qiagen) followed by gel filtration chromatography on Superdex 200HR column on an AKTA system (GE Healthcare).
Assays were carried out for 20 min at 30 °C, terminated by applying the reaction mixture onto p81 paper and the incorporated radioactivity measured as described previously.

T1 sequence (Q13164 whole entry): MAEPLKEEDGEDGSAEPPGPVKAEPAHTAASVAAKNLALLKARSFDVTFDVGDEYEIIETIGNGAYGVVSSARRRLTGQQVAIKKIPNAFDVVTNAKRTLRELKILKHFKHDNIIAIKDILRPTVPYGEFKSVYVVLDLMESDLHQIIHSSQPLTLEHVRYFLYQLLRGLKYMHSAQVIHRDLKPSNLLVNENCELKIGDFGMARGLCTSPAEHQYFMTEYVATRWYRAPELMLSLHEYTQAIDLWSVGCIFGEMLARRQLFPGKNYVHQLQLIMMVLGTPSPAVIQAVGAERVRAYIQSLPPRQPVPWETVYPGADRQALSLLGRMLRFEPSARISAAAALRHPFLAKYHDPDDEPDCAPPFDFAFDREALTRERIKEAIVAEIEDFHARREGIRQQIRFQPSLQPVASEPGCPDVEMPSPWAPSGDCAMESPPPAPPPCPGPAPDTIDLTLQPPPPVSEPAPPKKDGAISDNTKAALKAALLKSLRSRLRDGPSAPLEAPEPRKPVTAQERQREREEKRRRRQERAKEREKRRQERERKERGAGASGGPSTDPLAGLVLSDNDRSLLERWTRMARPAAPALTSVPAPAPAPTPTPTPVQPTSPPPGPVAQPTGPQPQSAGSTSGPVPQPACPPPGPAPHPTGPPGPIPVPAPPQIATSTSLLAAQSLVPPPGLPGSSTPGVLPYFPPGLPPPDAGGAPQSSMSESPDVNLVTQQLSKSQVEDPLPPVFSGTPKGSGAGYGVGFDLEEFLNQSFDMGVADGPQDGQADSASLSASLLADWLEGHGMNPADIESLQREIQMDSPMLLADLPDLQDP

EC50 (ERK5 [1]) | IC50 (ERK5 [2]) | fold decrease in activity for ERK5 (ERK5 [2]; relative to compound 5) | SMILES
4110 ± 590 nM | 1250 ± 151 nM | – | CN1CCC(Nc2ncc3c(n2)N(C)c2ccccc2C(=O)N3C)CC1 [Compound 10]
4680 ± 520 nM | 1720 ± 221 nM | – | CN1C(=O)c2ccccc2N(C)c2nc(NCCc3cnc[nH]3)ncc21 [Compound 9]
240 ± 30 nM | 140 ± 9 nM | – | COc1cc(NCCN(C)C)ccc1Nc1ncc2c(n1)N(C)c1ccccc1C(=O)N2C [Compound 13]
1320 ± 220 nM | 873 ± 60 nM | – | COc1cc(N2CCN(C)CC2)ccc1Nc1ncc2c(n1)N(C)c1ccc(F)cc1C(=O)N2C [Compound 20]
240 ± 40 nM | 297 ± 14 nM | – | COc1cc(N2CCC(O)CC2)ccc1Nc1ncc2c(n1)N(C)c1ccccc1C(=O)N2C [Compound 6]
> 1000 nM | 1450 ± 210 nM | 4 fold | COc1cc(N2CCN(C)CC2)ccc1Nc1ncc2c(n1)N(C)c1ccccc1C(=O)N2 [Compound 16]
3100 ± 620 nM | 2460 ± 260 nM | – | COc1cc(N2CCN(C)CC2)ccc1Nc1ncc2c(n1)N(C)c1cc(C)ccc1C(=O)N2C [Compound 23]
260 ± 30 nM | 233 ± 19 nM | – | COc1cc(N2CCOCC2)ccc1Nc1ncc2c(n1)N(C)c1ccccc1C(=O)N2C [Compound 7]
310 ± 60 nM | 171 ± 16 nM | – | CN1C(=O)c2ccccc2N(C)c2nc(Nc3ccc(S(N)(=O)=O)cc3)ncc21 [Compound 8]
11400 ± 2040 nM | 5090 ± 52 nM | – | COc1cc(N2CCN(C)CC2)ccc1Nc1ncc2c(n1)N(C)c1ccc(Cl)cc1C(=O)N2C [Compound 22]
320 ± 50 nM | 338 ± 18 nM | – | COc1cc(C(=O)NC2CCN(C)CC2)ccc1Nc1ncc2c(n1)N(C)c1ccccc1C(=O)N2C [Compound 14]

SMILES | EC50 (ERK5 [1]) | IC50 (ERK5 [2]) | fold decrease in activity for ERK5 (ERK5 [2]; relative to compound 5)
CC(C)Oc1cc(N2CCC(O)CC2)ccc1Nc1ncc2c(n1)N(C)c1ccccc1C(=O)N2C [Compound 12] | > 500 nM | 1530 ± 172 nM | –
CCN1c2ccccc2C(=O)N(C)c2cnc(Nc3ccc(N4CCN(C)CC4)cc3OC)nc21 [Compound 17] | 200 ± 40 nM | 66 ± 7 nM | –
COc1cc(N2CCN(C)CC2)ccc1Nc1ncc2c(n1)N(C)c1cc(Cl)ccc1C(=O)N2C [Compound 21] | 1240 ± 240 nM | 1130 ± 160 nM | –
COc1cc(N2CCN(C)CC2)ccc1Nc1ncc2c(n1)N(C1CCCC1)c1ccccc1C(=O)N2C [Compound 19] | 200 ± 40 nM | 146 ± 18 nM | –
COc1cc(N2CCN(C)CC2)ccc1Nc1ncc2c(n1)N(C(C)C)c1ccccc1C(=O)N2C [Compound 18] | 230 ± 30 nM | 98 ± 12 nM | –
